Data taken from patent US20090298103A1, “Predicting hemostatic risk; dependence on plasma composition” (The University of Vermont and State Agriculture College, priority 2008, published 2009).
Like-named read-outs stand apart in the source and are kept apart here.

Key:
fVIIa = molecular target: T1, fVIIa (Homo sapiens, UniProt P08709); experiment: Factor VIIa titrations of Tf proteins in the absence of lipid; format: biochemical; settings: in complex with fVIIa, Tf 0.1 nM, no lipid
T1 construct: Novo Nordisk (gift)
T1 sequence (P08709 213-466 limits assumed, one chain of several): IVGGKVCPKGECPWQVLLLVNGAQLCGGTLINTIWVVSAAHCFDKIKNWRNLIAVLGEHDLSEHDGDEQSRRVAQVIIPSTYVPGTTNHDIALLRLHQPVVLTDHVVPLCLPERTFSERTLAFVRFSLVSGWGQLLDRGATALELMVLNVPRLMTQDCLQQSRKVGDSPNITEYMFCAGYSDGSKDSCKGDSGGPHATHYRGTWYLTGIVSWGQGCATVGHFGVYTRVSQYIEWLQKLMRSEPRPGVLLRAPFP
T1 sequence (P08709 61-212 partner limits assumed, one chain of several): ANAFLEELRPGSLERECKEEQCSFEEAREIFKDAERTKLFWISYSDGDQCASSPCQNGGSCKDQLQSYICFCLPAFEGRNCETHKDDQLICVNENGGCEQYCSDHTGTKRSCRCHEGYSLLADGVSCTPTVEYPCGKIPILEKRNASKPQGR
Experimental: FIG. 24 is a graphical view of factor VIIa titrations of recombinant Tf (rTf) 1-263, rTf 1-242 and human placental Tf (all at 0.1 nM) in the absence of lipid.
Reports of physical studies of Tf have made use of SDS-PAGE, amino acid analyses and presumed stoichiometry of binding. In a most recent review, a Tf molecular weight of 47 kDa is cited, introducing a 30% error for any experimental physical parameter regarding Tf and its interactions. Tf proteins are distinguished by functional activities in simple as well as in complex reaction systems (FIGS. 24, 25).

[1] = Light scattering measurement of Protein S depolymerization on Ca++ addition; format: physicochemical
Description: Open squares: commercial PS and closed squares: in-house PS.
In regards to Protein S (PS) a Tf-based assay for PS in CTI-inhibited recalcified PS deficient plasma was developed. […] Dilutions of a normal plasma pool fall on this curve (open symbols). […] The convergence of plasma dilution data with the purified protein curve lends support of the preservation of natural PS quality in the material we isolate. The rate of depolymerization of Ca^++ free PS upon addition of Ca^++ using light scattering (FIG. 26B) was evaluated.

[2] = molecular target: thrombin and meizotirombin (mIIa); settings: cited from earlier work
prothrombin = experiment: Western blot of prothrombin consumption during resupply in the synthetic coagulation proteome; format: biochemical, human
Experimental: Gel Electrophoresis and Western Blotting—Resupply time course samples were quenched into an equal volume of 50 mM EDTA, 50 μM FPRck in HBS and 4 μl aliquots (potentially containing 100 ng prothrombin) were made 2% in SDS and 2% in β-mercaptoethanol and analyzed by SDS-PAGE. Protein species were separated on 4 to 12% linear gradient gel and transferred to nitrocellulose membranes (Bio-Rad Laboratories Inc., US). FII and its activation products were probed for using a polyclonal burro anti-human prethrombin 1 antibody. Reactive bands were detected using goat anti-equine horseradish peroxidase conjugated IgG (Southern Biotechnology, Birmingham Ala.) with a chemiluminescence reagent (Perkin Elmer, Boston Mass.) and Kodak X-OMat film.
Prothrombin Consumption during Resupply—In FIGS. 32B, 32D and 33D, the estimates of UFH, Fpx and DAPA efficacy potentially represent a combination of 2 modes of anticoagulant action: their relative reactivity toward preformed catalytic complexes and their direct inhibition of thrombin formed during the reaction. […]

[3] = system: Tf-initiated thrombin formation; experiment: Synthetic coagulation proteome, Tf-initiated thrombin generation (prophylactic anticoagulation); format: biochemical, human
Description: Materials—Human coagulation fVII, fX, fIX, and prothrombin (fII), were isolated from fresh frozen plasma using the methods of Bajaj et al., and were purged of traces of active enzymes. FXI was purified using the monoclonal anti-fXI antibody α-fXI-2. Human fV and AT were isolated from freshly frozen plasma. The following were provided as gifts: recombinant fVIII and recombinant Tf (residues 1-242); recombinant human fVIIa; and recombinant full-length tissue factor pathway inhibitor (TFPI). Corn trypsin inhibitor (CTI) was isolated from popcorn. The preparation of the Tf/lipid reagent was performed. 1,2-Dioleolyl-sn-Glycero-3-Phospho-L-Serine (PS) and 1,2-Dioleoyl-sn-Glycero-3-Phosphocholine (PC) were purchased from Avanti Polar Lipids, Inc (Alabaster, Ala.), and EDTA was purchased from Sigma (St Louis, Mo.). Phospholipid vesicles (PCPS) composed of 75% PC and 25% PS and were prepared.
(§1) Synthetic Coagulation Model—The procedure used is a modification of Lawson et al. [Lawson, J. H., Kalafatis, M., Stram, S., and Mann, K. G. (1994) J. Biol. Chem. 269, 23357-23366] and van't Veer et al. [van't Veer, C. and Mann, K. G. (1997) J. Biol. Chem. 272, 4367-4377]. Relipidated Tf at 5 pM final concentration was added to a mixture of fII, fV, fVII, fVIIIa, fVIII, fIX, fX, fXI, TFPI, and AT (all at mean physiologic concentrations) (43) in 20 mM HEPES/150 mM NaCl (HBS) with 2 mM CaCl2 containing 2 μM PCPS. Pharmacologic agents were incorporated into the reaction mixture prior to addition of the Tf reagent. Resupply was conducted at 20 min post Tf initiation by the addition of an equal volume of a freshly constituted, Tf free mixture containing procofactors, zymogens and inhibitors in HBS with 2 mM CaCl2 and 2 μM PCPS to an ongoing reaction. Pharmacologic agents were present in the resupply mixture at twice their final concentration.
(§2) Thrombin generation over time was measured in a chromogenic assay using Spectrozyme TH and a THERMOmax microplate reader (Molecular Devices Corp., Menlo Park, Calif.). In experiments assessing the reversible thrombin inhibitor DAPA, rates of thrombin generation were calculated by reference to a standard curve relating thrombin concentration to rates of substrate hydrolysis in the presence of relevant DAPA concentrations.
Incorporation of Anticoagulants into the Mathematical Model—FIG. 27 presents the sets of equations describing the mechanisms of action of each of the anticoagulants used in this study and FIG. 28 presents the rate constants controlling the identified bimolecular interactions and the dosing ranges recommended for prophylactic and therapeutic applications. Details of modeling the various anticoagulant interactions are described herein and in the Methods section. Prophylactic Anticoagulation—There is shown in FIGS. 30A and 30 C computational assessments and in FIGS. 30B and D empirical assessments of the efficacy of each anticoagulant in suppressing the onset of Tf-initiated thrombin formation. In both empirical and computational studies, a 5 pM Tf reagent stimulus was used and thrombin generation assessed over 20 min. Results are presented that compare thrombin generation in the absence of anticoagulant (♦) to that observed over the range of anticoagulant concentrations that drive the transition from partial to maximum suppression of thrombin formation. […]

[4] = system: thrombin formation after resupply; experiment: Synthetic coagulation proteome, resupply response (therapeutic anticoagulation); format: biochemical, human
Experimental: as §1, §2
Therapeutic Anticoagulation—We have previously reported that one outcome in closed model systems of Tf-initiated coagulation is the formation of a relatively stable prothrombin activating potential which responds to the introduction of a new supply of reactants with an immediate burst of thrombin production, i.e., a “resupply response” (see U.S. application Ser. No. 10/507,661). There is shown in FIGS. 32A-D and 33A-D computational (FIGS. 32A,C; FIGS. 33A,C) and representative empirical (FIGS. 32B,D; FIGS. 33B,D) assessments of the efficacy of each anticoagulant in suppressing the resupply response. Computational and empirical time courses of thrombin formation are shown for the final 5 min of the Tf-initiated process and for the resupply phase.

[5] = system: contact pathway inhibited blood; experiment: Contact pathway inhibited whole blood, resupply; format: biochemical, human; settings: 160 nM C921-78
Description: (§3) Whole Blood Model—The protocol used is a modification of Rand et al. [Orfeo, T., Butenas, S., Brummel-Ziedins, K. E., and Mann, K. G. (2005) J. Biol. Chem. 280, 42887-42896; Rand, M. D., Lock, J. B., van't Veer, C., Gaffney, D. P., and Mann, K. G. (1996) Blood 88, 3432-3445]. A healthy donor was recruited, advised according to a protocol approved by the University of Vermont Human Studies Committee and their consent was obtained. […] Blood was drawn by venipuncture and immediately delivered into the reagent-loaded tubes. In general, 2 sets of aliquots of CTI treated blood were initiated with […] Tf reagent. One set was quenched at 1 min intervals while the other was incubated for 20 min. […] This resupply blood contained CTI alone (0.1 mg/ml), CTI+2 uM fondaparinux or CTI+320 nM C921-78. After the experiment, the tubes are centrifuged and the supernatants are aliquoted and analyzed for TAT levels. A subset of tubes containing either Fpx or C921-78 were initiated with 5 pM Tf reagent, quenched at 20 min and analyzed for TAT levels.
(§4) Anticoagulant Efficacy in Whole Blood—To test whether results from the computational and proteome based analyses would extrapolate to a more complex empirical model, the efficacy of anticoagulants in suppressing thrombin generation was addressed in contact pathway inhibited blood in both Tf-initiated and resupply regimens. […]

fXa = fXa (Homo sapiens, UniProt P00742); settings: cited from earlier work
fXa, sequence (P00742 235-488 limits assumed): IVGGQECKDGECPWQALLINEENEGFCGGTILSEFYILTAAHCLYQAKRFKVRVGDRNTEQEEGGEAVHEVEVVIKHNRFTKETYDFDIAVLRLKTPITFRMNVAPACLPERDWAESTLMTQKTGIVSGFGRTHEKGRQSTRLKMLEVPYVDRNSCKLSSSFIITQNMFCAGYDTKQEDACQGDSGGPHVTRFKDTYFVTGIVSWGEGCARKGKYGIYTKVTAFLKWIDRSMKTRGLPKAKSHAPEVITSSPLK
fXa, sequence (P00742 41-179 partner limits assumed): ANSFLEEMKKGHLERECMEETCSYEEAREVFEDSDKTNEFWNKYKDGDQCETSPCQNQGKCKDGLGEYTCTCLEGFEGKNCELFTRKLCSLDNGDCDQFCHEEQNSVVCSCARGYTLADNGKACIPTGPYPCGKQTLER

fXa in prothrombinase = fXa in prothrombinase (Homo sapiens, UniProt P00742); settings: cited from earlier work
fXa in prothrombinase, sequence (P00742 235-488 limits assumed): as the sequence (P00742 235-488 limits assumed) above
fXa in prothrombinase, sequence (P00742 41-179 partner limits assumed): as the sequence (P00742 41-179 partner limits assumed) above
fXa in prothrombinase, sequence (P12259 29-737 partner limits assumed): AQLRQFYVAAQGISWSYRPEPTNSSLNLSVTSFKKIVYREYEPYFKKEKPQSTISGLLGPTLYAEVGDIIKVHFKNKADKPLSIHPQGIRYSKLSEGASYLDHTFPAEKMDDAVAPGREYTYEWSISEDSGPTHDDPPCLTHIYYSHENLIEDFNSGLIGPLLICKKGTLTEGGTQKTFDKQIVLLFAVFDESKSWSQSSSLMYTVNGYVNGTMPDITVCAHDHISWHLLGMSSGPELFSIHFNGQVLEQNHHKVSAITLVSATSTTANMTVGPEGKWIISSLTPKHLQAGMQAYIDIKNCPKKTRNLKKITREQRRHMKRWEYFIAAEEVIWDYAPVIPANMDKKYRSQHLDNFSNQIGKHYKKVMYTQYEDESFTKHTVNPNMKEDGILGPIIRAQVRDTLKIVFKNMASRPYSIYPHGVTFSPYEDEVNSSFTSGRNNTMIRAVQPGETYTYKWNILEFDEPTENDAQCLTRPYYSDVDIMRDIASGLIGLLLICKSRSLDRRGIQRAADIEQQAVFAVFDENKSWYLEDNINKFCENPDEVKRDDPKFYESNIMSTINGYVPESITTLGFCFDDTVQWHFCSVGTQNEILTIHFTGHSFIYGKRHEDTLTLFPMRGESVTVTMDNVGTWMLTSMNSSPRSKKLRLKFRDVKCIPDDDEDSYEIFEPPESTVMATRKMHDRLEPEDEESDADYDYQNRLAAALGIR
fXa in prothrombinase, sequence (P12259 1574-2224 partner limits assumed): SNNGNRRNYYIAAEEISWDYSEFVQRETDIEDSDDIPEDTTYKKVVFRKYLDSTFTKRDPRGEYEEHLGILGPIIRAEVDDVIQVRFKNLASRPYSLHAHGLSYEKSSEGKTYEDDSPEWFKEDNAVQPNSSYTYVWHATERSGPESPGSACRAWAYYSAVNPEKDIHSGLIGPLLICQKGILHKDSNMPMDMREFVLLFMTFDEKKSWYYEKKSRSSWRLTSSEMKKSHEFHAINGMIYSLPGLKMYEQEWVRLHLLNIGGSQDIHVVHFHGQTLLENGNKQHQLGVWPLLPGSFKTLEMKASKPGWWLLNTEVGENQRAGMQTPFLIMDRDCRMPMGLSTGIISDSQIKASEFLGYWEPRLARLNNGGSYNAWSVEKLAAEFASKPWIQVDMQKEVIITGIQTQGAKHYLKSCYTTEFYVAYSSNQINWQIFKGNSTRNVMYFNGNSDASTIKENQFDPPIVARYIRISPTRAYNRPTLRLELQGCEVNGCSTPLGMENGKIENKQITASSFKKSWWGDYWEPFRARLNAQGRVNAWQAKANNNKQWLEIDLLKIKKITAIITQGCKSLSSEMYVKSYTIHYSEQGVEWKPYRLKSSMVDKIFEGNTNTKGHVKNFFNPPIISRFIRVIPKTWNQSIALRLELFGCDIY

[6] = system: contact pathway inhibited blood; experiment: Contact pathway inhibited whole blood, Tf-initiated TAT formation; format: biochemical, human; settings: increasing concentrations incorporated into blood prior to Tf (5 pM)
Description: as §3, §4

thrombin generation = experiment: Thrombin generation in reconstituted coagulation platelet proteome; format: biochemical, human
Description: FIG. 25 is a graphical view of thrombin generation in synthetic plasma with platelets (2×10^8/ml). Notice monocyte in situ and monocyte purified.

placental Tf: natural human placental tissue factor isolated by monoclonal antibody procedure
Kd compared with the recombinant proteins (fVIIa): lower Kd
Vmax compared with the recombinant proteins (fVIIa): higher Vmax

commercial preparation of PS (ERL): commercial preparation of Protein S (ERL)
depolymerization behavior ([1]; commercial preparation (ERL)): does not show this depolymerization behavior

CCC1CCN(C(=O)C(CCCNC(=N)N)NS(=O)(=O)c2cccc3c(N(C)C)cccc23)CC1 (stereo not shown) [DAPA, dansylarginine-N-[3-ethyl-1,5-pentanediyl]amide]
Kd ([2]; thrombin and meizothrombin): 20 to 40 nM
Kd ([2]; value used in the model (FIG. 27)): 40 nM
blocking prothrombin consumption in the resupply format (prothrombin; DAPA): completely ineffective
effect on prothrombin consumption ([3]; 20 μM DAPA): only attenuating the maximum rate of prothrombin consumption
total prothrombin consumption ([3]; 100 μM DAPA): ~20 nM
difference in rate or maximum final level of IIa=DAPA between the 2 DAPA concentrations ([4]; 10 μM vs 100 μM DAPA): No substantial difference in rate or maximum final level

N=C(N)NCCCC(NS(=O)(=O)c1ccccc1)C(=O)NCC(=O)NC(CCCNC(=N)N)C(=O)c1nccs1 [C921-78, Benzenesulfonyl-D-Arg-Gly-Arg-ketothiazole]
prothrombin consumption (immunoblots) [5]: minimal
Kd (fXa): ~0.014 nM
prothrombin consumption at 15 min (prothrombin; 160 nM C921-78, densitometric analyses): ~10%
displacing the onset of thrombin generation ([3]; 1 nM C921-78): somewhat more effective than computationally predicted
effects on maximum rate and concentrations of IIa ([3]; 1 nM C921-78): minimal effects
thrombin generation ([3]; 10 nM C921-78): completely suppressed
maximum thrombin levels ([4]; 70 nM C921-78): 35 nM
time of maximum thrombin level post resupply ([4]; 70 nM C921-78): 4 min
maximum thrombin levels ([4]; 100 nM C921-78): ~25 nM
time of maximum thrombin level post resupply ([4]; 100 nM C921-78): 10 min
delay of thrombin generation ([4]; 160 nM C921-78): 11 min
maximum thrombin levels ([4]; 160 nM C921-78): 14 nM
Kd (fXa in prothrombinase): 0.022 nM
TAT levels at 20 min [6]: decreases in TAT levels

PS: purified in-house Protein S preparation
half time of depolymerization of Ca++ free PS upon addition of Ca++ ([1]; 25° C.): approximately 100 s

B1: monocyte Tf: tissue factor from THP-1 monocytes after stimulation with LPS (protein, UniProt P13726 33-295, looked up)
Tissue factor: SGTTNTVAAYNLTWKSTNFKTILEWEPKPVNQVYTVQISTKSGDWKSKCFYTTDTECDLTDEIVKDVKQTYLARVFSYPAGNVESTGSAGEPLYENSPEFTPYLETNLGQPTIQSFEQVGTKVNVTVEDERTLVRRNNTFLSLRDVFGKDLIYTLYYWKSSSSGKKTAKTNTNEFLIDVDKGENYCFSVQAVIPSRTVNRKSTDSPVECMGQEKGEFREIFYIIGAVVFVVIILVIILAISLHKCRKAGVGQSWKENSPLNVS
activity relative to monocyte Tf reconstituted on synthetic membranes (thrombin generation): ~400 ×
